# Test results as given in patent US11554182B2, “Macrocyclic complexes of alpha-emitting radionuclides and their use in targeted radiotherapy of cancer” (CORNELL UNIVERSITY, priority 2017, dated 2023).
# Test: In vivo biodistribution of ^225Ac complexes after intravenous injection
# Parameters: species or system C57BL/6 mice
# Description: In Vivo Biodistribution of ^225Ac Complexes of Macropa and DOTA. All experiments were approved by the Institutional Animal Care Committee (IACC) of the University of British Columbia and were performed in accordance with the Canadian Council on Animal Care Guidelines. A total of 9 female C57BL/6 mice (6-8 weeks old, 20-25 g) were used for the biodistribution study of each radiometal complex, n=3 for each time point.
# Macropa (100 μL of a 1 mg/mL solution in NH4OAc) was diluted with 387 μL of NH4OAc (1 M, pH 7), and an aliquot (203 μL) of ^225Ac(NO3)3 (˜157 kBq) was then added; the pH of this solution was adjusted to 6.5-7 by the addition of 1 M NaOH (210 μL, trace metal grade). After 5 min at ambient temperature, the reaction solution was analyzed by TLC (0.4 M pH 4 sodium citrate as the eluent), which confirmed >95% radiochemical yield. The reaction was allowed to proceed overnight, and the radiochemical yield was again confirmed to be >95% the following morning. At this time, mice were anesthetized by 2% isoflurane, and approximately 100 μL (10-15 kBq) of the [^225Ac(macropa)]^+ complex were injected into the tail vein of each mouse. After injection, mice were allowed to recover and roam freely in their cages, and were euthanized by CO2 inhalation at 15 min, 1 h, or 5 h (n=3 at each time point) post-injection. Blood was collected by cardiac puncture and placed into an appropriate test tube for scintillation counting. Tissues collected included heart, liver, kidneys, lungs, small intestine, large intestine, brain, bladder, spleen, stomach, pancreas, bone, thyroid, tail, urine, and feces. Tissues were weighed and then counted with a calibrated gamma counter (Packard, Cobra II model 5002) using three energy windows: 60-120 keV (window A), 180-260 keV (window B), and 400-480 keV (window C). Counting was performed both immediately after sacrifice and after 7 days; counts were decay corrected from the time of injection and then converted to the percentage of injected dose (% ID) per gram of tissue (% ID/g). No differences were noted between the data; therefore, the biodistributions are reported using the data acquired immediately using window A.
# The biodistribution studies of [^225Ac(DOTA)]^− and ^225Ac(NO3)3 were carried out as described above for [^225Ac(macropa)]^+, with the following modifications. [^225Ac(DOTA)]^− was prepared by adding ^225Ac(NO3)3 (338 μL, 1.1 MBq) to a solution of DOTA (100 μg, 20 mg/mL in H2O) in NH4OAc (467 μL, 0.15 M, pH 7). The pH of the solution was adjusted to 7 using NH4OAc (150 μL, 1 M, pH 7) and the solution was heated at 85° C. for 45 min. RCY>99% was confirmed by TLC as described above. [^225Ac(DOTA)]^− was diluted with saline to a final concentration of 0.05 MBq/100 μL, and 100 μL were injected into each mouse. ^225Ac(NO3)3 (˜58 μL, 0.4 MBq) was diluted and injected in the same manner as [^225Ac(DOTA)]^−. One mouse that was to be euthanized at the 5 h time point in the [^225Ac(DOTA)]^− study died shortly after injection. In the same manner, one mouse that was to be euthanized at the 1 h time point in the ^225Ac(NO3)3 study died.
# The in vivo stability [^225Ac(macropa)]^+ was examined by comparing its biodistribution to those of ^225Ac(NO3)3 and [^225Ac(DOTA)]^−. C57BL/6 mice were injected via tail vein with 10-50 kBq of each radiometal complex and were sacrificed after 15 min, 1 h, or 5 h. The amount of ^225Ac retained in each organ was quantified by gamma counting and reported as the percent of injected dose per gram of tissue (% ID/g). The results of these studies are compiled in Tables 1-3. Inadequate stability of an ^225Ac complex leading to the loss of radioisotope in vivo is manifested by the accumulation of ^225Ac in the liver, spleen, and bone of mice.^[11,12,32] […] The biodistribution profile of [^225Ac(macropa)]^+ (FIG. 3B) differs markedly from that of ^225Ac(NO3)3. […]
# [1] = 1 h after i.v. injection, energy window B (180-260 keV)
# [2] = 1 h after i.v. injection, energy window C (400-480 keV)
# [3] = 5 h after i.v. injection, energy window A (60-120 keV)
# [4] = 5 h after i.v. injection, energy window B (180-260 keV)
# [5] = 5 h after i.v. injection, energy window C (400-480 keV)
# [6] = i.v. injection, C57BL/6 mice, up to 5 h
smiles,measurement,setting,value
O=[N+]([O-])[O-].O=[N+]([O-])[O-].O=[N+]([O-])[O-].[225Ac] [^225Ac(NO3)3],% ID/g in lungs,[1],8.4426 % ID/g
same,% ID/g in pancreas,[1],2.1579 % ID/g
same,% ID/g in small intestines,[1],1.5192 % ID/g
same,% ID/g in spleen,[1],37.1540 % ID/g
same,% ID/g in stomach,[1],1.5867 % ID/g
same,% ID/g in tail,[1],6.4201 % ID/g
same,% ID/g in thyroids,[1],5.7426 % ID/g
same,% ID/g in urine,[1],7.0564 % ID/g
same,% ID/g in bladder,[2],2.2929 % ID/g
same,% ID/g in blood,[2],11.3736 % ID/g
same,% ID/g in bone (femur + joint),[2],2.7213 % ID/g
same,% ID/g in brain,[2],0.4402 % ID/g
same,% ID/g in feces,[2],0.1122 % ID/g
same,% ID/g in heart,[2],3.3464 % ID/g
same,% ID/g in kidneys,[2],6.2070 % ID/g
same,% ID/g in large intestines,[2],0.4366 % ID/g
same,% ID/g in liver,[2],23.6180 % ID/g
same,% ID/g in lungs,[2],5.2078 % ID/g
same,% ID/g in pancreas,[2],1.8508 % ID/g
same,% ID/g in small intestines,[2],3.5548 % ID/g
same,% ID/g in spleen,[2],38.1082 % ID/g
same,% ID/g in stomach,[2],2.3350 % ID/g
same,% ID/g in tail,[2],9.0877 % ID/g
same,% ID/g in thyroids,[2],0.0000 % ID/g
same,% ID/g in urine,[2],104.9103 % ID/g
same,% ID/g in bladder,[3],1.4947 % ID/g
same,% ID/g in blood,[3],1.9886 % ID/g
same,% ID/g in bone (femur + joint),[3],3.5460 % ID/g
same,% ID/g in brain,[3],0.0452 % ID/g
same,% ID/g in feces,[3],0.9445 % ID/g
same,% ID/g in heart,[3],1.3450 % ID/g
same,% ID/g in kidneys,[3],4.6910 % ID/g
same,% ID/g in large intestines,[3],0.6479 % ID/g
same,% ID/g in liver,[3],59.8156 % ID/g
same,% ID/g in lungs,[3],4.1871 % ID/g
same,% ID/g in pancreas,[3],0.4874 % ID/g
same,% ID/g in small intestines,[3],1.3704 % ID/g
same,% ID/g in spleen,[3],62.9614 % ID/g
same,% ID/g in stomach,[3],2.6131 % ID/g
same,% ID/g in tail,[3],23.4055 % ID/g
same,% ID/g in thyroids,[3],-2.7052 % ID/g
same,% ID/g in urine,[3],4.8267 % ID/g
same,% ID/g in bladder,[4],1.5234 % ID/g
same,% ID/g in blood,[4],2.0018 % ID/g
same,% ID/g in bone (femur + joint),[4],3.8533 % ID/g
same,% ID/g in brain,[4],0.0290 % ID/g
same,% ID/g in feces,[4],1.0201 % ID/g
same,% ID/g in heart,[4],1.3948 % ID/g
same,% ID/g in kidneys,[4],3.8752 % ID/g
same,% ID/g in large intestines,[4],0.6744 % ID/g
same,% ID/g in liver,[4],62.0765 % ID/g
same,% ID/g in lungs,[4],4.3379 % ID/g
same,% ID/g in pancreas,[4],0.4455 % ID/g
same,% ID/g in small intestines,[4],1.2201 % ID/g
same,% ID/g in spleen,[4],65.9117 % ID/g
same,% ID/g in stomach,[4],2.5322 % ID/g
same,% ID/g in tail,[4],25.4744 % ID/g
same,% ID/g in thyroids,[4],−4.6044 % ID/g
same,% ID/g in urine,[4],3.3142 % ID/g
same,% ID/g in bladder,[5],3.4975 % ID/g
same,% ID/g in blood,[5],2.1769 % ID/g
same,% ID/g in bone (femur + joint),[5],3.5851 % ID/g
same,% ID/g in brain,[5],0.0430 % ID/g
same,% ID/g in feces,[5],0.8535 % ID/g
same,% ID/g in heart,[5],1.2018 % ID/g
same,% ID/g in kidneys,[5],4.2061 % ID/g
same,% ID/g in large intestines,[5],1.0259 % ID/g
same,% ID/g in liver,[5],54.1727 % ID/g
same,% ID/g in lungs,[5],5.4923 % ID/g
same,% ID/g in pancreas,[5],0.4643 % ID/g
same,% ID/g in small intestines,[5],1.2922 % ID/g
same,% ID/g in spleen,[5],62.2357 % ID/g
same,% ID/g in stomach,[5],2.0358 % ID/g
same,% ID/g in tail,[5],28.4443 % ID/g
same,% ID/g in thyroids,[5],-0.4455 % ID/g
same,% ID/g in urine,[5],5.8548 % ID/g
same,clearance from blood / mice (in words),[6],slow blood clearance and excretion
same,organ accumulation (in words),[6],large accumulation in the liver and spleen
